Three compounds from PMC8288134, “Synthesis, potential antitumor activity, cell cycle analysis, and multitarget mechanisms of novel hydrazones incorporating a 4-methylsulfonylbenzene scaffold: a molecular docking study” (Journal of Enzyme Inhibition and Medicinal Chemistry, 2021) can be followed below.

What is called inhibition is the percentage by which the read-out fell short of the control. For orientation: IC50 means the concentration that inhibits the measured activity by half. For orientation: GI50 means the concentration that inhibits growth by half.

Molecules are shown by their SMILES. Read-outs that look alike come from different tables or passages of the source.

For one experiment, the system named is EKVX. Nature of the experiment: NCI antitumor screen (SRB). The format is cell-based. To be noted: Homo sapiens; for inhibition at 10 µM: one dose 10 µM, read-out: Growth inhibition percentage (GI%).
The test system of a further experiment is OVCAR-5. Nature of the experiment: NCI antitumor screen (SRB). Type of experiment: cell-based. To be noted: Homo sapiens; for inhibition at 10 µM: one dose 10 µM, read-out: Growth inhibition percentage (GI%).
A further experiment relates to LOX IMVI. Nature of the experiment: NCI antitumor screen (SRB). To be noted: Homo sapiens; for inhibition at 10 µM: one dose 10 µM, read-out: Growth inhibition percentage (GI%). Type of experiment: cell-based.
For a further experiment, the system named is NCI-H23. Nature of the experiment: NCI antitumor screen (SRB). As to conditions: Homo sapiens; for inhibition at 10 µM: one dose 10 µM, read-out: Growth inhibition percentage (GI%). Type of experiment: cell-based.
The subject of a further experiment is SF-268. Nature of the experiment: NCI antitumor screen (SRB). The format is cell-based. To be noted: Homo sapiens; for inhibition at 10 µM: one dose 10 µM, read-out: Growth inhibition percentage (GI%).
In a further experiment the test system is DU-145. Nature of the experiment: NCI antitumor screen (SRB). Type of experiment: cell-based. As to conditions: Homo sapiens; for inhibition at 10 µM: one dose 10 µM, read-out: Growth inhibition percentage (GI%).
In a further experiment the test system is SK-MEL-28. Nature of the experiment: NCI antitumor screen (SRB). The format is cell-based, human. To be noted: for inhibition at 10 µM: read-out: Growth inhibition percentage (GI%).
A further experiment relates to NCI-H322M. Description: NCI antitumor screen (SRB). The format is cell-based. As to conditions: Homo sapiens; for inhibition at 10 µM: read-out: Growth inhibition percentage (GI%).
In a further experiment the test system is SNB-75. Nature of the experiment: NCI antitumor screen (SRB). Type of experiment: cell-based. As to conditions: Homo sapiens; for inhibition at 10 µM: one dose 10 µM, read-out: Growth inhibition percentage (GI%).
Another experiment deals with NCI/ADR-RES. Description: NCI antitumor screen (SRB). The format is cell-based. As to conditions: Homo sapiens; for inhibition at 10 µM: one dose 10 µM, read-out: Growth inhibition percentage (GI%).
The subject of the next experiment is NCI-H226. Nature of the experiment: NCI antitumor screen (SRB). The format is cell-based. As to conditions: Homo sapiens; for inhibition at 10 µM: one dose 10 µM, read-out: Growth inhibition percentage (GI%).
For another experiment, the system named is HOP-62. Nature of the experiment: NCI antitumor screen (SRB). Type of experiment: cell-based. As to conditions: Homo sapiens.
Another experiment relates to A498. Nature of the experiment: NCI antitumor screen (SRB). As to conditions: Homo sapiens; for inhibition at 10 µM: one dose 10 µM, read-out: Growth inhibition percentage (GI%). Type of experiment: cell-based.
For a further experiment, the system named is HL-60(TB). Nature of the experiment: cells. As to conditions: for inhibition at 10 µM: HL-60, HL-60(TB), read-out: Growth inhibition percentage (GI%). Type of experiment: cell-based, human.
The target of the next experiment is T1, COX-2 (Ovis aries, UniProt P79208).
T1 construct: purchased Cayman Chemical 560101
T1 sequence (P79208 17-603): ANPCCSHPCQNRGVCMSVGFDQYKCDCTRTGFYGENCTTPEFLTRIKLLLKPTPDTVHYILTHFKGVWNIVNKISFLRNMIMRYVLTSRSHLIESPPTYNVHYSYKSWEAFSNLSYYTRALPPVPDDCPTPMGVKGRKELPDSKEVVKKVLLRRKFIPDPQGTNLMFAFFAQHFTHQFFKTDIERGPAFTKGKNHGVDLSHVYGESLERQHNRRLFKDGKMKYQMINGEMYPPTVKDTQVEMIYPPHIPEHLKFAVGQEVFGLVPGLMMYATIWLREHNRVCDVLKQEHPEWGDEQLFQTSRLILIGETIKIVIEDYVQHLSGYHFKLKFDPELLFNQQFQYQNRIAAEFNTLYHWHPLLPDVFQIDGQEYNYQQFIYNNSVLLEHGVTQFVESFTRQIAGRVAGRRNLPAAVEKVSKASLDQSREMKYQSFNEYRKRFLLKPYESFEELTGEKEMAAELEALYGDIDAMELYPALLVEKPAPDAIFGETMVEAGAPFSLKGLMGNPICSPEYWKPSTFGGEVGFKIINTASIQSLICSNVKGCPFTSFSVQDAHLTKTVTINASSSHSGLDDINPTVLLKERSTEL
Description: biochemical. To be noted: mean of three determinations; read-out: IC50 COX-2 Inhibition. The method, then:
had been previously attached to the well. The plate was washed to remove any unbound reagents, and then Ellman’s reagent, containing the substrate of acetylcholine esterase, was added to the well. This enzymatic reaction produced a distinct yellow color that was absorbed in 410 nm. The intensity of the color, determined spectrophotometrically, was proportional to the amount of PG tracer bound to the well, which was inversely proportional to PGs present in the well during the incubation: Absorbance ∝ [Bound PG Tracer] a1/PGs. Percent inhibition was calculated by comparing the treated compound to various control incubations. The test compound […]
inhibition response curve (duplicate determinations). […]

A further experiment concerns MOLT-4. Nature of the experiment: NCI antitumor screen (SRB). Type of experiment: cell-based. To be noted: Homo sapiens; for inhibition at 10 µM: one dose 10 µM, read-out: Growth inhibition percentage (GI%).
The mark [1] stands for this setting: Homo sapiens, SK-MEL-28, SK-MEL-28, one dose 10 µM.
Where [2] appears, read: HOP-62, one dose 10 µM, read-out: Growth inhibition percentage (GI%).
[3] abbreviates: five concentrations 0.01-100 µM.

Turning to `Cc1ccc(C=NNC(=O)c2ccc(S(C)(=O)=O)cc2)cc1` [Compound 9, N'-(4-Methylbenzylidene)-4-(methylsulfonyl)benzohydrazide], the inhibition at 10 µM with EKVX, with OVCAR-5, with LOX IMVI, in the experiment on NCI-H23, in the experiment on SF-268 and in the experiment with DU-145 was below 10% each time. The inhibition at 10 µM was below 10% in the experiment with SK-MEL-28 (setting [1]); below 10% in the experiment on NCI-H322M (one dose 10 µM); below 10% with SNB-75; 14.6% with NCI/ADR-RES; below 10% in the experiment with NCI-H226; below 10% with HOP-62 (setting [2]). The inhibition at 10 µM with A498 came out at 17.9%; in the experiment on HL-60(TB) (Homo sapiens, one dose 10 µM) it was 24.3%; in the experiment on MOLT-4, 22.6%. Further, the IC50 on COX-2 was found to be 2970 ± 70 nM.
For `CS(=O)(=O)c1ccc(C(=O)N/N=C/c2ccccc2O)cc1` [Compound 16], the inhibition at 10 µM with EKVX is 74.2%; in the experiment on OVCAR-5, 35.3%; in the experiment on LOX IMVI it was 78.6%; in the experiment with NCI-H23, 45.2%; in the experiment on SF-268, 61.6%; in the experiment on DU-145, 59.6%. Moreover, the inhibition at 10 µM in the experiment on SK-MEL-28 (Homo sapiens, SK-MEL-28, one dose 10 µM) came to 44.1%; in the experiment with NCI-H322M, 61.6%; with SNB-75, 22.3%; in the experiment on NCI/ADR-RES, 70.1%; in the experiment on NCI-H226, 44.8%; with HOP-62 (HOP-62, read-out: Growth inhibition percentage (GI%)) it was 71.8%. The inhibition at 10 µM stood at 24.8% in the experiment on A498; 93.7% in the experiment on HL-60(TB) (Homo sapiens, one dose 10 µM); 90.8% with MOLT-4. Besides, the IC50 on COX-2 turned out to be 82400 ± 3610 nM.
`CCN(CC)c1ccc(/C=N/NC(=O)c2ccc(S(C)(=O)=O)cc2)c(O)c1` [Compound 20]: the GI50 in the experiment with EKVX (setting [3]) is 162 nM; in the experiment on OVCAR-5 (setting [3]), 6480 nM; in the experiment on LOX IMVI (setting [3]), 99.7 nM; in the experiment with NCI-H23 (setting [3]), 446 nM; with SF-268 (setting [3]), 78.9 nM; with DU-145 (setting [3]), 144 nM. Moreover, the concentration for 50% growth inhibition (GI50) was 340 nM in the experiment on SK-MEL-28 (Homo sapiens, SK-MEL-28, five concentrations 0.01-100 µM); 228 nM with NCI-H322M (setting [3]); 228 nM in the experiment on SNB-75 (setting [3]); 324 nM with NCI/ADR-RES (setting [3]); 73 nM in the experiment with NCI-H226 (setting [3]); 85 nM with HOP-62 (HOP-62, five concentrations 0.01-100 µM). Further, the GI50 in the experiment on A498 (setting [3]) was determined as 9810 nM; with HL-60(TB) (Homo sapiens, HL-60(TB), five concentrations 0.01-100 µM) it was 164 nM; in the experiment with MOLT-4 (setting [3]), 164 nM. The inhibition at 10 µM in the experiment on EKVX is 84.5%; in the experiment with OVCAR-5, 67.5%; with LOX IMVI, 90.3%; in the experiment with NCI-H23, 67.2%; with SF-268, 78.2%; in the experiment on DU-145, 75.5%. For the same compound, the inhibition at 10 µM is 72.9% with SK-MEL-28 (setting [1]); 75% with NCI-H322M (one dose 10 µM); 44.8% with SNB-75; 82.2% in the experiment with NCI/ADR-RES; 77.4% in the experiment on NCI-H226; 87.1% in the experiment with HOP-62 (setting [2]). Also, the inhibition at 10 µM in the experiment on A498 was determined as 54.7%; with HL-60(TB) (Homo sapiens, one dose 10 µM), 100%; in the experiment on MOLT-4, 97.3%. In addition, the “Growth inhibition percentage (GI%)” value in the experiment on SK-MEL-28 (SK-MEL-28, one dose 10 µM) is listed as 72.8%; in the experiment on HL-60(TB) (HL-60(TB), one dose 10 µM) it was above 100%. Besides, on COX-2, the IC50 came to 6940 ± 410 nM.
